{
  "source": "patent US6384193B1",
  "about": "“Agents for the regulation of oestrogen synthesis” (Imperial College of Science Technology and Medicine, priority 1996, dated 2002)",
  "key": {"[1]": {"test_system": "MCF-7 breast cancer cells", "conditions": "MCF-7 cells, Singh et al. 1995, cited from earlier work"}, "aromatase activity": {"test_system": "aromatase activity", "conditions": "IL-6 stimulated fibroblasts derived from sub-cutaneous adipose tissue; Singh et al. 1995; cited from earlier work"}, "[2]": {"test_system": "IL-6 plus IL-6sR stimulated aromatase activity", "assay": "IL-6 plus IL-6sR stimulated aromatase activity in fibroblasts derived from normal breast tissue", "assay_type": "cell-based", "conditions": "Arohib 125 μM added 3 h prior to IL-6 50 ng/ml + IL-6sR 100 ng/ml, serum-free medium", "experimental": "Aromatase activity was assessed in primary cultures of stromal fibroblasts derived from sub-cutaneous adipose tissue. Cells were grown until 80% confluent when they were washed with Earle's balanced salt solution (5 ml) and cultured for 24 h in phenol red-free, serum-free Eagle's minimum essential medium. Experimental media were then added in the presence of dexamethasone (100 nmol/l), IL-6 (50 ng/ml, Bachem, Cambridge, U.K.), or IL-6 plus IL-6sR (250 ng/ml, R & D System Europe Ltd., Abingdon, U.K.) and incubated for a further 48 h.\nAromatase activity was assayed in intact fibroblast monolayers by measuring the production of hu 3H2O from [1β-^3H] androstenedione (15-30 Ci/mmol, NEN-DuPont, Stevenage, U.K.) over a 20 h period (Newton et al., 1986). Aromatase activity measured under these conditions was linear with respect to time for up to 20 h (Macdiarmid et al., 1994). Cell number was determined by counting cell nuclei using a Coulter counter.\nTo examine the ability of Arohib to block the interaction of IL-6sR with gp130, fibroblasts were derived from normal breast tissue and cultured in growth medium containing fetal calf serum. When cells were 80% confluent, this medium was removed and replaced with serum-free medium. Cells were then treated as shown below with the results illustrated in FIG. 2."}},
  "data": [
    {"molecule": "4-hydroxytamoxifen [4-OHT]", "values": [
      {"measurement": "effect on oestradiol-induced increase of IL-6sR release", "setting": "[1]; with oestradiol", "value": "blocked the ability of oestradiol to increase IL-6sR release"},
      {"measurement": "effect on IL-6sR release", "setting": "[1]", "value": "small stimulatory effect"}
    ]},
    {"molecule": "C[C@]12CC[C@@H]3c4ccc(O)cc4CC[C@H]3[C@@H]1CC[C@@H]2O", "note": "[Oestradiol, oestradiol]", "values": [
      {"measurement": "effect on IL-6sR release", "setting": "[1]", "value": "markedly increased"}
    ]},
    {"molecule": "IL-6: cytokine interleukin-6", "values": [
      {"measurement": "aromatase activity (in words)", "setting": "aromatase activity", "value": "Significant arbmatase activity was detectable"}
    ]},
    {"molecule": "TNFα", "values": [
      {"measurement": "effect on IL-6sR release", "setting": "[1]", "value": "markedly increased"}
    ]},
    {"molecule": "YRLRFELRYRAERSKT (PEPTIDE (1)..(16) sequence of a synthetic peptide corresponding to the regulatory site residues 249-264 of interleukin-6 receptor (IL-6R)) [Arohib, 16 amino acid peptide based upon part of the IL-6R external domain]", "values": [
      {"measurement": "reduction in the ability of IL-6/IL-6sR to stimulate aromatase activity", "setting": "[2]", "value": 67, "unit": "%"}
    ]}
  ]
}
